Test results as given in patent publication US20060204537A1, “Silicone blends and composites for drug delivery” (Genzyme Corporation, priority 2002, published 2006).

Test: Release of Paclitaxel from silicone elastomer coatings into calf serum
Assay type: physicochemical
Conditions: for steady state release rate of Paclitaxel: calf serum, 37° C.
Method: All samples were dip-coated pieces of 316 L stainless steel, measuring 1 cm×1 cm with 26 gauge thickness. The stainless steel pieces were first cleaned by sonicating in 3% Isopanasol, deionised (DI) water, and acetone, each for 6 minutes, then dipped into the silicone composite solutions of the invention. Silicone elastomer solutions were made with DAP® 100% silicone rubber adhesive (from DAP, Inc., Maryland) co-dissolved with either Paclitaxel or Tranilast and 20% (w/w) of polyethylene glycol, MW 3400 (PEG) in methylene chloride. Upon setting, the silicone elastomer solutions formed a film on the steel pieces having a certain thickness. Paclitaxel was loaded at 2% of silicone weight. Tranilast was loaded at 5% of silicone weight. […] All samples were placed in glass culture tubes with 2 mL of either PBS, pH 7.4 or calf serum. The culture tubes were then placed in a shaking water bath at 37° C. and 120 rpm. At each time interval, all of the release media was removed and replaced by fresh solution. Paclitaxel samples were assayed using a competitive inhibition enzyme immunoassay (CIEIA) kit from Hawaii Biotech, Aiea, Hi. Tranilast samples were assayed using UV spectrophotometry at a wavelength of 340 nm.

- duration of almost zero-order release after the initial burst (both films, with and without PEG): 60 days
- steady state release rate of Paclitaxel (films with 20% weight PEG MW 3400): 0.38 ± 0.03 µg/day
- initial burst of Paclitaxel (films without PEG compared with films with 20% PEG): higher initial burst
- steady state release rate of Paclitaxel (films without PEG): 0.21 ± 0.03 µg/day
- duration of continued but decreased release (silicone elastomer coatings): ≤ 140 days
SMILES: CC(=O)O[C@H]1C(=O)[C@@]2(C)[C@H]([C@H](OC(=O)c3ccccc3)[C@]3(O)C[C@H](OC(=O)[C@H](O)[C@@H](NC(=O)c4ccccc4)c4ccccc4)C(C)=C1C3(C)C)[C@]1(OC(C)=O)CO[C@@H]1C[C@@H]2O [Paclitaxel]
